Results on 45 compounds are retold here after patent publication US10688093B2, “Methods, compositions, and uses of novel Fyn kinase inhibitors” (priority 2015, dated 2020).

The target of the first assay is full-length recombinant human FYN A (Homo sapiens (Human), UniProt P06241). The experiment in a line: ADP-Glo Kinase Assay of FYN kinase inhibition. Type of assay: biochemical. The following applies: primary screen, initial compounds. The procedure, abridged: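 ADP-Glo read-out of peptide phosphorylation after 90 min RT with 12.5 pmol ATP and 100 pg 12-mer substrate. Enzyme was N-GST full-length human FYN A from insect cells, 3 pg, pre-incubated 30 min with compound, 10 points from 10 μM top, 3-fold steps; IC50 from curve.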
full-length recombinant human FYN A, sequence (P06241 whole entry): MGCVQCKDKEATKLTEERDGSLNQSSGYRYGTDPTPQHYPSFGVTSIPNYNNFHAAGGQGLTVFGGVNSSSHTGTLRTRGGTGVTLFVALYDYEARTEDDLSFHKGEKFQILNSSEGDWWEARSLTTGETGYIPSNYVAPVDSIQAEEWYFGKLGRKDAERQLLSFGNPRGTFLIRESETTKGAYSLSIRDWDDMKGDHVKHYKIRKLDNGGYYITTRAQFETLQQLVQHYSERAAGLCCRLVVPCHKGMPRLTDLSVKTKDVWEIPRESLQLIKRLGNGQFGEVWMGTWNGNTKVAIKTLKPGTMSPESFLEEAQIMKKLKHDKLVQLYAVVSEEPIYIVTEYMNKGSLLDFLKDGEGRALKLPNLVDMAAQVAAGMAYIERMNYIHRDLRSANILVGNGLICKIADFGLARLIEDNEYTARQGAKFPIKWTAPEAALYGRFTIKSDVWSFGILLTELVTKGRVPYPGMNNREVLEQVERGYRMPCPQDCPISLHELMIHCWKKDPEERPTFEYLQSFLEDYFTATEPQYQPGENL
On the technique in general: ADP-Glo turns the ADP formed in a reaction into a luminescent signal.
Usually IC50 stands for the point on the concentration scale where inhibition reaches its midpoint. Consider `c1csc(-c2cn3c(-c4ccncc4)cnc3cn2)c1` [Compound 198, 3-(4-pyridyl)-6-(2-thienyl)imidazo [1,2-a]pyrazine], for which the IC50 came out at 5690 nM. The same measure, in the same setting: as for `Oc1ccc(-c2cn3c(-c4ccsc4)cnc3cn2)cc1` [Compound 199, 4-[3-(3-thienyl)imidazo [1,2-a]pyrazin-6-yl]phenol], the figure is 2700 nM; as for `c1csc(-c2cn3c(-c4ccsc4)cnc3cn2)c1` [Compound 200, 6-(2-thienyl)-3-(3-thienyl)imidazo [1,2-a]pyrazine], 2250 nM. On the same count and under the same terms, as for `CC(=O)Nc1cccc(-c2cn3c(-c4ccsc4)cnc3cn2)c1` [Compound 201, N-[3-[3-(3-thienyl)imidazo [1,2-a]pyrazin-6-yl]phenyl] acetamide], the figure is 2330 nM; as for `CS(=O)(=O)Nc1cccc(-c2cn3c(-c4ccsc4)cnc3cn2)c1` [Compound 202, N-[3-[3-(3-thienyl)imidazo [1,2-a]pyrazin-6-yl]phenyl] methane-sulfonamide], 3320 nM. Same read-out and setting: to `c1coc(-c2cn3c(-c4ccsc4)cnc3cn2)c1` [Compound 203, 6-(2-furyl)-3-(3-thienyl)imidazo [1,2-a]pyrazine] belongs 6250 nM. As to `Oc1cccc(-c2cnc3cnc(-c4ccccc4)cn23)c1` [Compound 204, 3-(6-phenylimidazo [1,2-a]pyrazin-3-yl)phenol], the concentration for half-maximal inhibition (IC50) is 6550 nM. Same read-out and setting: to `NC(=O)c1cccc(-c2cn3c(-c4cccc(O)c4)cnc3cn2)c1` [Compound 205, 3-[3-(3-hydroxyphenyl)imidazo[1,2-a]pyrazin-6-yl]benzamide] belongs 1580 nM.

Consider `Oc1ccc(-c2cnc3cnc(-c4cccnc4)cn23)cc1` [Compound 206, 4-[6-(3-pyridyl)imidazo [1,2-a]pyrazin-3-yl]phenol], for which the IC50 came to 2730 nM.

Turning to `OCc1ccc(-c2cn3c(-c4ccc(Oc5ccccc5)cc4)cnc3cn2)cc1` [Compound 207], the half-inhibitory concentration (IC50) is 4720 nM. On the same count and under the same terms, to `Oc1ccc(-c2cnc3cnc(-c4ccc(Cl)cc4)cn23)cc1` [Compound 208, 4-[6-(4-chlorophenyl)imidazo[1,2-a]pyrazin-3-yl]phenol] belongs 6380 nM; to `Oc1cccc(-c2cnc3cnc(-c4cccs4)cn23)c1` [Compound 209, 3-[6-(2-thienyl)imidazo [1,2-a]pyrazin-3-yl]phenol], 2780 nM. Still for that read-out and setting: as for `Cn1cc(-c2cn3c(-c4ccc(Oc5ccccc5)cc4)cnc3cn2)cn1` [Compound 210, 6-(1-methylpyrazol-4-yl)-3-(4-phenoxyphenyl) imidazo[1,2-a]pyrazine], the figure is 1930 nM. For `Oc1cccc(-c2cnc3cnc(-c4ccco4)cn23)c1` [Compound 211, 3-[6-(2-furyl)imidazo [1,2-a]pyrazin-3-yl]phenol], the IC50 is 6110 nM.

As for `COc1ccc(-c2cn3c(-c4ccc(O)cc4)cnc3cn2)cn1` [Compound 212, 4-[6-(6-methoxy-3-pyridyl)imidazo [1,2-a]pyrazin-3-yl]phenol], the IC50 worked out at 1980 nM. The same measure, in the same setting: as for `OCc1ccc(-c2cn3c(-c4cccc(O)c4)cnc3cn2)cc1` [Compound 213, 3-[6-[4-(hydroxymethyl)phenyl]imidazo [1,2-a]pyrazin-3-yl]phenol], the figure is 3360 nM; as for `Cn1cc(-c2cn3c(-c4cccc(O)c4)cnc3cn2)cn1` [Compound 214, 3-[6-(1-methylpyrazol-4-yl)imidazo[1,2-a]pyrazin-3-yl]phenol], 2780 nM. Same read-out and setting: as for `Cn1cc(-c2cn3c(-c4ccc(O)cc4)cnc3cn2)cn1` [Compound 215, 4-[6-(1-methylpyrazol-4-yl)imidazo[1,2-a]pyrazin-3-yl]phenol], the figure is 1590 nM; as for `CN1CCN(c2ccc(-c3cn4c(-c5ccc(Oc6ccccc6)cc5)cnc4cn3)cn2)CC1` [Compound 216, 6-[6-(4-methylpiperazin-1-yl)-3-pyridyl]-3-(4-phenoxyphenyl) imidazo[1,2-a]pyrazine], 2130 nM.

As to `O=C(NCCO)c1cccc(-c2cn3c(-c4ccc(Oc5ccccc5)cc4)cnc3cn2)c1` [Compound 217, N-(2-hydroxyethyl)-3-[3-(4-phenoxyphenyl)imidazo[1,2-a]pyrazin-6-yl]benzamide], the IC50 came to 1480 nM.

The assay is the same for the next values; noted with them: secondary screen, re-synthesized and expanded compounds.
For the compound `Oc1cccc(-c2cnc3ccc(-c4ccncc4)nn23)c1` [BF000726352, 3-[6-(4-pyridyl)-imidazo[1,2-b]pyridazin-3-yl]phenol], the 50% inhibitory concentration (IC50) came to 342 nM. Still for that read-out and setting: as for `OCc1cccc(-c2cnc3ccc(-c4ccncc4)nn23)c1` [BF000726364, [3-[6-(4-pyridyl)-imidpzo[1,2-b]pyridazin-3-yl]phenyl]-methanol], the figure is 973 nM. The same measure, in the same setting: as for `COc1ccc(-c2ccc3ncc(-c4cccc(CO)c4)n3n2)cc1OC` [BF000726366, [3-[6-(3,4-dimethoxy-phenyl)-imidazo[1,2-b]pyridazin-3-yl]phenyl]-methanol], the figure is 893 nM; as for `CC(=O)Nc1cccc(-c2ccc3ncc(-c4cccc(CO)c4)n3n2)c1` [BF000726367, N-[3-[3-[3-(hydroxy-methyl)phenyl]-imidazo[1,2-b]pyridazin-6-yl]phenyl]-acetamide], 1520 nM. As to `COc1cc(-c2cnc3ccc(-c4ccc(OC)c(OC)c4)nn23)ccc1O` [BF000726453, 4-[6-(3,4-dimethoxy-phenyl)-imidazo[l,2-b]pyridazin-3-yl]-2-methoxy-phenol], the IC50 came to 39.4 nM. Still for that read-out and setting: to `COc1cc(-c2cnc3ccc(-c4cccc(NC(C)=O)c4)nn23)ccc1O` [BF000726454, N-[3-[3-(4-hydroxy-3-methoxy-phenyl)-imidazo[1,2-b]pyridazin-6-yl]phenyl]-acetamide] belongs 104 nM; to `CC(=O)c1cccc(-c2cnc3ccc(-c4cccc(CO)c4)nn23)c1` [BF000726471, 1-[3-[6-[3-(hydroxy-methyl)-phenyl]-imidazo[1,2-b]pyridazin-3-yl]phenyl]-ethanone], 291 nM. The same measure, in the same setting: to `COc1cc(-c2cnc3ccc(-c4ccc(CO)cc4)nn23)ccc1O` [BF000726486, 4-[6-[4-(hydroxy-methyl)-phenyl]-imidazo[1,2-b]pyridazin-3-yl]-2-methoxy-phenol] belongs 61.8 nM; to `COc1cc(-c2cnc3ccc(-c4cccc(CO)c4)nn23)ccc1O` [BF000726487, 4-[6-[3-(hydroxy-methyl)-phenyl]-imidazo[1,2-b]pyridazin-3-yl]-2-methoxy-phenol], 63 nM; to `COc1cncc(-c2cnc3sc(NC4CCC(O)CC4)nn23)c1` (stereo not drawn) [BF000802724, 4-[[5-(5-methoxy-3-pyridyl)-imidazo[2,1-b][1,3,4]-thiadiazol-2-yl]amino]-cyclohexanol], 301 nM. On to `CN(C)CCCNC(=O)c1ccc(-c2cn3c(-c4ccc(Oc5ccccc5)cc4)cnc3cn2)cc1` [BF000816927, N-[3-(dimethyl-amino)-propyl]-4-[3-(4-phenoxy-phenyl)imidazo[1,2-a]pyrazin-6-yl]benzamide], for which the half-maximal inhibitory concentration (IC50) was determined as 247 nM. Still for that read-out and setting: to `CC(C)[C@@H](CO)Nc1ccc2ncc(-c3ccncc3)n2n1` [BF000817097, (2S)-3-methyl-2-[[3-(4-pyridyl)-imidazo[1,2-b]pyridazin-6-yl]amino]-butan-1-ol] belongs 631 nM; to `CC(=O)c1cccc(-c2cnc3ccc(NCCCO)nn23)c1` [BF000817098, 1-[3-[6-(3-hydroxy-propyl-amino)-imdazo[1,2-b]pyridazin-3-yl]phenyl]-ethanone], 645 nM; to `c1cc(-c2cnc3ccc(NC4CCOCC4)nn23)ccn1` [BF000817099, 3-(4-pyridyl)-N-tetrahydro-pyran-4-yl-imidazo[1,2-b]pyridazin-6-amine], 270 nM. The same measure, in the same setting: as for `CC(=O)Nc1cccc(-c2cnc3ccc(-c4ccncc4)nn23)c1` [BF000817142, N-[3-[6-(4-pyridyl)-imidazo[1,2-b]pyridazin-3-yl]phenyl]-acetamide], the figure is 741 nM; as for `COc1cc(-c2cnc3ccc(-c4ccncc4)nn23)ccc1O` [BF000817169, 2-methoxy-4-[6-(4-pyridyl)-imidazo[1,2-b]pyridazin-3-yl]phenol], 79.4 nM; as for `c1ccc(CNc2ccc3ncc(-c4ccncc4)n3n2)nc1` [BF000817170, 3-(4-pyridyl)-N-(2-pyridyl-methyl)-imidazo[1,2-b]pyridazin-6-amine], 170 nM.

Take `COc1cc(-c2cnc(N)c(-c3cc(OC)c(OC)c(OC)c3)c2)cc(OC)c1OC` [BF000817175, 3,5-bis(3,4,5-trimethoxy-phenyl)-pyridin-2-amine]: the IC50 is 85.4 nM. Same read-out and setting: as for `COc1cc(-c2cc(-c3ccc(N4CCN(C(C)C)CC4)cc3)cnc2N)ccc1O` [BF000817185], the figure is 78.1 nM.

Regarding `COc1cc(-c2ccc3ncc(-c4ccc(O)c(OC)c4)n3n2)ccc1O` [BF000817186, 4-[3-(4-hydroxy-3-methoxy-phenyl)-imidazo[1,2-b]pyridazin-6-yl]-2-methoxy-phenol], the IC50 was 29.4 nM. Same read-out and setting: to `OCc1cccc(-c2ccc3ncc(-c4cccc(CO)c4)n3n2)c1` [BF000817188, [3-[3-[3-(hydroxy-methyl)-phenyl]-imidazo[1,2-b]pyridazin-6-yl]phenyl]-methanol] belongs 828 nM; to `COc1ccc(-c2cnc3sc(NCC4CCOCC4)nn23)cc1OC` [BF000817208, 5-(3,4-dimethoxy-phenyl)-N-(tetra-hydropyran-4-ylmethyl)-imidazo[2,1-b][1,3,4]-thiadiazol-2-amine], 1030 nM; to `CC(=O)Nc1cccc(-c2cnc3ccc(-c4cccc(CO)c4)nn23)c1` [BF000817329, N-[3-[6-[3-(hydroxy-methyl)-phenyl]-imidazo[1,2-b]pyridazin-3-yl]phenyl]-acetamide], 435 nM.

Turning to `COc1cc(-c2cc(-c3ccc(N4CCOCC4)cc3)cnc2N)ccc1O` [BF000817413, 4-[2-amino-5-(4-morpholino-phenyl)-3-pyridyl]-2-methoxy-phenol], the IC50 amounted to 212 nM.

For `COc1ccc(-c2cnc(N)c(-c3ccc(N4CCN(C)CC4)cc3)c2)cc1O` [BF000817418, 5-[6-amino-5-[4-(4-methyl-piperazin-1-yl)phenyl]-3-pyridyl]-2-methoxy-phenol], the half-inhibitory concentration (IC50) came to 9650 nM.
